Test [1] deals with Foxp1 exon 16-16b alternative splicing switch. Nature of the test: Foxp1 exon 16-16b incorporation in mESCs by quantitative RT-PCR. In kind it is cell-based, mouse. The following applies: 1 μM, 8 h. The method, then: (§1) SRSF phosphorylation, SRPK1, SRPK2, and ERK1/2 levels were determined by immunoblotting. Expected positions of SRSFs that are not detected are shown in gray. Quantification of SRSF phosphorylation (Right). Data represented as mean ± SEM (n = 4). […] Neuro 2a is a control for exon 16b exclusion in differentiated cells (Bottom). Data represented as mean ± SEM (n = 3). […] Exon 16 inclusion: (^∗∗∗∗) p < 0.0001, Exon 16b inclusion: (^∗) p = 0.0164, p = 0.0485, and p = 0.0489 (left to right). Ratio exon 16b/16: (^∗∗∗∗) p < 0.0001, (^∗∗∗) p = 0.0003. (C) SRPK substrates predicted using ScanProsite and grouped according to UniProt functions. (D) RNF12 phosphorylation sites detected by mass-spectrometry. LZL, leucine-zipper like; NLS, nuclear localization signal; NES, nuclear export signal; RING, RING E3 ubiquitin ligase catalytic domain. (E) CMGC family kinase copy numbers in mESCs determined by quantitative proteomics and represented using Kinoviewer. (F) CMGC kinase (200 mU) phosphorylation of the RNF12 SR-motif in vitro was determined by immunoblotting for RNF12 phospho-Ser214 and total RNF12. […] Normalized RNF12 Ser214 phosphorylation is shown below. Data represented as mean ± SEM (n = 3). […] RNF12 SR-motif phosphorylation was analyzed by immunoblotting for RNF12 phospho-Ser214 and RNF12. SRPK1 and SRPK2 levels are shown as a loading control, Related to Figure S1; Tables S1 and S2.
Total RNA extraction and reverse transcription was performed as described. Quantitative PCR reactions using SsoFast EvaGreen Supermix (Bio-Rad) were performed in a CFX384 real time PCR system (Bio-Rad). Relative RNA expression was calculated through the ΔΔCt method and normalised to Gapdh expression. Data was analysed in Excel (Microsoft) and statistical analysis performed in GraphPad Prism v7.0c software (GraphPad Software Inc.).

The target of test [2] is SRPK1 (Homo sapiens, UniProt Q96SB4). It counts as biochemical. The following applies: in vitro, RNF12 phospho-Ser214 immunoblot quantified; read-out: IC50, inhibition of RNF12 phosphorylation by SRPK1. The protocol:
Cells were lysed, and 1.5 mg of protein immunoprecipitated with 2 μg of SRPK1 or SRPK2 antibodies (BD Biosciences). Immunoprecipitates were then washed with lysis buffer supplemented with 500 mM NaCl and half of the sample was resuspended in loading buffer. The remainder was subjected to in vitro phosphorylation assay containing 0.5 μg RNF12 and 2 mM ATP in kinase buffer (50 mM Tris-HCl [pH 7.5], 0.1 mM EGTA, 10 mM MgCl2, 2 mM DTT) and incubated at 30°C for 30 min. […] For radioactive in vitro kinase assays, reactions were supplemented with 1 μCi γ-^32P ATP. Reactions were incubated at 30°C for 30 min in presence or absence of inhibitor as indicated and samples subjected to polyacrylamide electrophoresis and immunoblot or Coomassie blue staining and signal detected via ECL, infrared detection or autoradiography.
Supplemental Figure Legends
(Related to Figure 1). (A) Wild-type (WT) mESCs were analysed for protein copy number by absolute quantitative proteomics. […]
Data are represented as mean ± S.E.M. (n=3). […] ND = not detected. (B) Inhibition of RNF12 phosphorylation in vitro by SRPK1 and SRPK2 in the presence of varying concentrations of the indicated SRPK inhibitors was determined by immunoblotting for RNF12 phospho-Ser214 (Left). […] Immunoblots were quantified to generate SRPK inhibitor dose-response curves for inhibition of RNF12 phosphorylation by SRPK1 and SRPK2 in vitro (Right). […]
In general terms: A western blot detects proteins with antibodies after separation by electrophoresis.

For test [3], the target named is T1, SRPK1 (Mus musculus, UniProt O70551).
T1 construct: endogenous in cells; host or cells: mESCs (CCE line)
Put plainly: SRPK1 immunoprecipitation kinase assay from inhibitor-treated mESCs with RNF12 as substrate. The note with it: mESCs pre-treated with 10 μM for 4 h. In kind it is cell-based. The protocol:
as §1, with “S2. […]” for “S2.”

In the next test the target is T2, SRPK2 (Mus musculus, UniProt O54781).
T2 construct: endogenous in cells; host or cells: mESCs (CCE line)
Nature of the test: SRPK2 immunoprecipitation kinase assay from inhibitor-treated mESCs with RNF12 as substrate. The note with it: mESCs pre-treated with 10 μM for 4 h. It counts as cell-based. The method, then: as §1, with “S2. […]” for “S2.”

Results on one compound are retold here after PMC7725506, “Functional Diversification of SRSF Protein Kinase to Control Ubiquitin-Dependent Neurodevelopmental Signaling” (Developmental Cell, 2020).

SRPK1 (Homo sapiens, UniProt Q96SB4), sequence (Q96SB4 whole entry): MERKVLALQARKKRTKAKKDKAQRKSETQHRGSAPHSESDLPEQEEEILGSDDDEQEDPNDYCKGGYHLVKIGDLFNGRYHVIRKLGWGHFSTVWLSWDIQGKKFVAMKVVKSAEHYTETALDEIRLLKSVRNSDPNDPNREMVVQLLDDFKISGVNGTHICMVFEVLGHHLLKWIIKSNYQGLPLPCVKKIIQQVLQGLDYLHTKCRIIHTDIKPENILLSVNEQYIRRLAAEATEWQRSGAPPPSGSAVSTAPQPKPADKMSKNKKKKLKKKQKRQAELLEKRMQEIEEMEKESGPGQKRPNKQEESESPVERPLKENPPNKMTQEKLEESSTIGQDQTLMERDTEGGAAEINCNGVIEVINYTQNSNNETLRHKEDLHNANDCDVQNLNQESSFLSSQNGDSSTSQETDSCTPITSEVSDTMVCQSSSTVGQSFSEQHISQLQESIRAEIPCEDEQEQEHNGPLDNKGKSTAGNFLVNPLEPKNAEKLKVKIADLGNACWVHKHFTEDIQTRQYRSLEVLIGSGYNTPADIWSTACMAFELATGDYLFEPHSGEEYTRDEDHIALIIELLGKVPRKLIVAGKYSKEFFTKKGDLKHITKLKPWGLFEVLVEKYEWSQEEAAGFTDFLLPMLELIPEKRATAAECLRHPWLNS
T1 sequence (O70551 whole entry): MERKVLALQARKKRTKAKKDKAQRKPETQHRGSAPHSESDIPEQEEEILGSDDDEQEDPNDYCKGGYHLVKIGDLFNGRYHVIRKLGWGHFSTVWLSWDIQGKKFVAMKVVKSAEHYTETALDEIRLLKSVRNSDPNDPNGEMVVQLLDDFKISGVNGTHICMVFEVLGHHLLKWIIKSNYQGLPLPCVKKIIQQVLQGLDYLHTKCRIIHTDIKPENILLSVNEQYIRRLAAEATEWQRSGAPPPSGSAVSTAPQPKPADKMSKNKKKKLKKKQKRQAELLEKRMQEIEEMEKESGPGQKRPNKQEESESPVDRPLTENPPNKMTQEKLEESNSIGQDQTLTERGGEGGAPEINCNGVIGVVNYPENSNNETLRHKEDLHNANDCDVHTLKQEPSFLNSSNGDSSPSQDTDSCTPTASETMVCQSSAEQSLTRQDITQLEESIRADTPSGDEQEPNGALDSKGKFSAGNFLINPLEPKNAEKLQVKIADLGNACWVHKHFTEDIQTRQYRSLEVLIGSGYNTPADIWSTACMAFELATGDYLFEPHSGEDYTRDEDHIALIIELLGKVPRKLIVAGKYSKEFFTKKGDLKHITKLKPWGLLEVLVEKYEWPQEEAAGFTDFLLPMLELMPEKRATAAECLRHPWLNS
T2 sequence (O54781 whole entry): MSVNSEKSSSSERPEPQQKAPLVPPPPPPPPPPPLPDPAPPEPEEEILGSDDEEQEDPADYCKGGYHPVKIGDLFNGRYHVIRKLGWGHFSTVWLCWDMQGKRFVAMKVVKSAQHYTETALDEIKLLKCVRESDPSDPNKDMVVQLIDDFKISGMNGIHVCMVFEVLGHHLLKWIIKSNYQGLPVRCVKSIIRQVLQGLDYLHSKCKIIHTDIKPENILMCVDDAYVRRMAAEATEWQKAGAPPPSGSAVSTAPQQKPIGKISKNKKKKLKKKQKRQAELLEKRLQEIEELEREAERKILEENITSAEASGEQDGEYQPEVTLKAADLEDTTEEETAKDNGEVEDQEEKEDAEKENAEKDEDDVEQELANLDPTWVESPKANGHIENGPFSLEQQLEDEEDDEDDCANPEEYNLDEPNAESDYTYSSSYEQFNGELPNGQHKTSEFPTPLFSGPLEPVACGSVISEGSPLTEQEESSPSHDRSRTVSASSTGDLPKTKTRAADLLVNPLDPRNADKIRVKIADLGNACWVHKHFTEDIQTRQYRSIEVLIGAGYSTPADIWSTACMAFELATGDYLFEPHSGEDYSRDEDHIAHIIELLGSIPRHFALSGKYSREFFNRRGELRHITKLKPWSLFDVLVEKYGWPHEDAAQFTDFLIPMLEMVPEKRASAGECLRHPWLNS

Take `CCc1cc2c(cc1-c1cccc(S(=O)(=O)F)c1)C(C)(C)c1[nH]c3cc(C#N)ccc3c1C2=O` [SRPKIN-1]: the “Foxp1 exon 16b-exon 16 inclusion” value in test [1] is “little effect”. Besides, the IC50 (in general, the concentration that gives 50% inhibition) on SRPK1 [2] worked out at 15.2 nM. Also, the “inhibition of SRPK1 in vivo (ability of immunoprecipitates to phosphorylate RNF12)” value on SRPK1 [3] was “potently inhibited”. Further, on SRPK2, the “inhibition of SRPK2 in vivo (ability of immunoprecipitates to phosphorylate RNF12)” value is listed as “potently inhibited”.
